The record followed here is patent US11000033B2, “Ketone or oxime compound, and herbicide” (NISSAN CHEMICAL CORPORATION, priority 2014, dated 2021).

Common to all, as to assay type: in vivo
The test system of data set [1] is Abutilon theophrasti. Put plainly: Test Example 5: herbicidal effect by foliage application, plastic box (symbol M). To be noted: 320 g/ha, 3 weeks after application. Summed up:
(§1)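 Sowing in sterilized diluvial soil, 14 days' greenhouse growth at 25° C. to 30° C., then uniform small-sprayer foliar application of aqueous emulsion dilution; plants scored three weeks afterwards.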

Data set [2] deals with soybean. Put plainly: Test Example 5: effect on crop by foliage application, plastic box (symbol d). The note with it: 320 g/ha, 3 weeks after application. A digest of the protocol: (§2)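 Diluvial soil, sterilized and boxed (21 × 13 × 7 cm), received spot-sown seed covered by about 1.5 cm soil; plants were then greenhouse-grown at 25–30° C.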
Data set [3] concerns Echinochloa crus-galli var. crus-galli. Put plainly: Test Example 3: herbicidal effect by foliage application, Wagner pot (symbol H). The note with it: application herbicide amount 320 g/ha. Summed up: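 Rating at 3 weeks post-spray, by defined criteria. Treatment: emulsion diluted with water to a predetermined amount, applied evenly to foliage of 14-day-old plants raised in alluvial soil flooded 0.1–0.5 cm deep at 25–30 °C, rice co-sown.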

The subject of data set [4] is Veronica persica. Put plainly: Test Example 5: herbicidal effect by foliage application, plastic box (symbol R). The note with it: 320 g/ha, 3 weeks after application. A digest of the protocol: as §1
Data set [5] relates to Digitaria ciliaris. Put plainly: Test Example 4: herbicidal effect by soil treatment (symbol F). To be noted: 320 g/ha. Summed up:
(§3)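 Seeds were sown in sterilized diluvial soil, covered with about 1.5 cm of soil, and the soil surface was sprayed with a water-diluted emulsion of the compound at a predetermined rate. Plants grew in a greenhouse at 25° C. to 30° C.; effects were scored visually 3 weeks after application.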

Data set [6] relates to Apera spica-venti. Put plainly: Test Example 5: herbicidal effect by foliage application, plastic box (symbol L). To be noted: 320 g/ha, 3 weeks after application. Summed up:
as §1

Data set [7] deals with Digitaria ciliaris. Put plainly: Test Example 5: herbicidal effect by foliage application, plastic box (symbol F). To be noted: 320 g/ha, 3 weeks after application. A digest of the protocol:
as §1

Data set [8] concerns Veronica persica. The experiment in a line: Test Example 4: herbicidal effect by soil treatment (symbol R). The note with it: 320 g/ha. A digest of the protocol:
as §3

The test system of data set [9] is Echinochloa oryzacola Vasing. The experiment in a line: Test Example 2: herbicidal activity, application during weed generation in submerged conditions (symbol A). To be noted: Table 23; application herbicide amount 320 g/ha; grade 0-5 by criteria of Test Example 1. A digest of the protocol: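 Flooded-soil post-emergence test: emulsion of compound, water-diluted to target rate, applied to paddy water surface at 1–2 leaf stage of mixed-sown weeds (alluvial soil, 4 cm water, 25–30° C. greenhouse); visual rating 3 weeks after application.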

Data set [10] has as its system Alopecurus myosuroides. Put plainly: Test Example 4: herbicidal effect by soil treatment (symbol J). The note with it: 320 g/ha. A digest of the protocol:
as §3

The subject of data set [11] is Avena fatua. The experiment in a line: Test Example 4: herbicidal effect by soil treatment (symbol I). The note with it: 320 g/ha. A digest of the protocol:
as §3

For data set [12], the system named is beet. The experiment in a line: Test Example 4: effect on crop by soil treatment (symbol f). To be noted: 320 g/ha. Summed up:
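Grown at 25° C. to 30° C. in a greenhouse, the crops came from seed sown spot-wise in sterilized diluvial soil under roughly 1.5 cm of covering soil.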

Data set [13] has as its system Abutilon theophrasti. The experiment in a line: Test Example 4: herbicidal effect by soil treatment (symbol M). To be noted: 320 g/ha. A digest of the protocol: as §3
For data set [14], the system named is Amaranthus retroflexus. The experiment in a line: Test Example 5: herbicidal effect by foliage application, plastic box (symbol N). To be noted: 320 g/ha, 3 weeks after application. A digest of the protocol:
as §1

Data set [15] relates to rice plant. Put plainly: Test Example 5: effect on crop by foliage application, plastic box (symbol b). The note with it: 320 g/ha, 3 weeks after application. A digest of the protocol:
as §2

Data set [16] relates to beet. Put plainly: Test Example 5: effect on crop by foliage application, plastic box (symbol f). The note with it: 320 g/ha, 3 weeks after application. A digest of the protocol: as §2

For the compound `CON=C(C)CC1CC(OC(=O)C2=CCCC2)=C(c2c(C)cc(C)cc2C)C1=O` (stereo not shown) [1-088], the “M: Abutilon theophrasti, herbicidal effect (criteria 0-5)” value in [1] is 4 (Herbicidal ratio of 70% or higher and lower than 90%). In data set [2], the “d: soybean, effect on crop (criteria 0-5)” value (“d: soybean, effect on crop” for short) was 3 (Herbicidal ratio of 40% or higher and lower than 70%). Also, the “herbicidal effect on H (Echinochloa crus-galli var. crus-galli), grade 0-5” value (“herbicidal effect on H” for short) in [3] is on record as 5 (Herbicidal ratio of 90% or more (almost completely withered)). Besides, the “R: Veronica persica, herbicidal effect (criteria 0-5)” value (from here on “R: Veronica persica … (criteria 0-5)”) in data set [4] was 3 (Herbicidal ratio of 40% or higher and lower than 70%). The “F: Digitaria ciliaris, herbicidal effect grade” value in [5] is listed as 5 (Herbicidal ratio of 90% or more (almost completely withered)). Also, the “L: Apera spica-venti, herbicidal effect (criteria 0-5)” value (“L: Apera spica-venti” for short) in data set [6] is on record as 5 (Herbicidal ratio of 90% or more (almost completely withered)). Further, the “F: Digitaria ciliaris, herbicidal effect (criteria 0-5)” value (from here on “F: Digitaria ciliaris … (criteria 0-5)”) in data set [7] was 5 (Herbicidal ratio of 90% or more (almost completely withered)). In addition, the “R: Veronica persica, herbicidal effect grade” value in data set [8] was 0 (Herbicidal ratio of 5% or lower (almost no effect)). Also, the “Herbicidal effect grade, A: Echinochloa oryzacola Vasing.” value in data set [9] is 5 (Herbicidal ratio of 90% or more (almost completely withered)). Moreover, in data set [10], the “J: Alopecurus myosuroides, herbicidal effect grade” value (shortened to “J: Alopecurus myosuroides”) is listed as 5 (Herbicidal ratio of 90% or more (almost completely withered)). Further, in [11], the “I: Avena fatua, herbicidal effect grade” value was 3 (Herbicidal ratio of 40% or higher and lower than 70%). In addition, the “f: beet, effect grade on crop” value in data set [12] is 0 (Herbicidal ratio of 5% or lower (almost no effect)). Besides, in data set [13], the “M: Abutilon theophrasti, herbicidal effect grade” value was 0 (Herbicidal ratio of 5% or lower (almost no effect)). For the same compound, the “N: Amaranthus retroflexus, herbicidal effect (criteria 0-5)” value (shortened to “N: Amaranthus retroflexus”) in [14] is 1 (Herbicidal ratio of 5% or higher and lower than 20%). For the same compound, the “b: directly sowed rice plant, effect on crop (criteria 0-5)” value (“b: directly sowed rice plant, effect” below) in data set [15] was 5 (Herbicidal ratio of 90% or more (almost completely withered)). For the same compound, the “f: beet, effect on crop (criteria 0-5)” value in data set [16] is listed as 0 (Herbicidal ratio of 5% or lower (almost no effect)).
With `CON=C(C)CC1CC(OC(=O)C2=C(Br)CCC2)=C(c2c(C)cc(C)cc2C)C1=O` (stereo not shown) [1-089], in [1], the “M: Abutilon theophrasti, herbicidal effect (criteria 0-5)” value is 4 (Herbicidal ratio of 70% or higher and lower than 90%). For the same compound, the “d: soybean, effect on crop” value in data set [2] was 2 (Herbicidal ratio of 20% or higher and lower than 40%). In data set [3], the “herbicidal effect on H” value is 5 (Herbicidal ratio of 90% or more (almost completely withered)). In data set [4], the “R: Veronica persica … (criteria 0-5)” value was 3 (Herbicidal ratio of 40% or higher and lower than 70%). In addition, the “F: Digitaria ciliaris, herbicidal effect grade” value in [5] is 5 (Herbicidal ratio of 90% or more (almost completely withered)). In addition, the “L: Apera spica-venti” value in data set [6] was 5 (Herbicidal ratio of 90% or more (almost completely withered)). The “F: Digitaria ciliaris … (criteria 0-5)” value in data set [7] is on record as 5 (Herbicidal ratio of 90% or more (almost completely withered)). Also, in [8], the “R: Veronica persica, herbicidal effect grade” value is 0 (Herbicidal ratio of 5% or lower (almost no effect)). In addition, the “Herbicidal effect grade, A: Echinochloa oryzacola Vasing.” value in [9] is recorded as 5 (Herbicidal ratio of 90% or more (almost completely withered)). The “J: Alopecurus myosuroides” value in [10] is 5 (Herbicidal ratio of 90% or more (almost completely withered)). Moreover, the “I: Avena fatua, herbicidal effect grade” value in [11] was 2 (Herbicidal ratio of 20% or higher and lower than 40%). For the same compound, the “f: beet, effect grade on crop” value in [12] is given as 0 (Herbicidal ratio of 5% or lower (almost no effect)). For the same compound, the “M: Abutilon theophrasti, herbicidal effect grade” value in data set [13] was 2 (Herbicidal ratio of 20% or higher and lower than 40%). The “N: Amaranthus retroflexus” value in data set [14] is 2 (Herbicidal ratio of 20% or higher and lower than 40%). Moreover, the “b: directly sowed rice plant, effect” value in data set [15] is 5 (Herbicidal ratio of 90% or more (almost completely withered)). Moreover, the “f: beet, effect on crop (criteria 0-5)” value in data set [16] was 0 (Herbicidal ratio of 5% or lower (almost no effect)).
With `CCCC=CC(=O)OC1=C(c2c(C)cc(C)cc2C)C(=O)C(CC(C)=NOC)C1` (stereo not shown) [1-090], in data set [1], the “M: Abutilon theophrasti, herbicidal effect (criteria 0-5)” value was 4 (Herbicidal ratio of 70% or higher and lower than 90%). Besides, in data set [2], the “d: soybean, effect on crop” value was 3 (Herbicidal ratio of 40% or higher and lower than 70%). Besides, the “herbicidal effect on H” value in data set [3] is 5 (Herbicidal ratio of 90% or more (almost completely withered)). The “R: Veronica persica … (criteria 0-5)” value in [4] is 3 (Herbicidal ratio of 40% or higher and lower than 70%). Moreover, in data set [5], the “F: Digitaria ciliaris, herbicidal effect grade” value was 5 (Herbicidal ratio of 90% or more (almost completely withered)). Besides, the “L: Apera spica-venti” value in [6] was 5 (Herbicidal ratio of 90% or more (almost completely withered)). Also, the “F: Digitaria ciliaris … (criteria 0-5)” value in data set [7] was 5 (Herbicidal ratio of 90% or more (almost completely withered)). Moreover, the “R: Veronica persica, herbicidal effect grade” value in [8] is reported as 0 (Herbicidal ratio of 5% or lower (almost no effect)). In addition, in data set [9], the “Herbicidal effect grade, A: Echinochloa oryzacola Vasing.” value is reported as 5 (Herbicidal ratio of 90% or more (almost completely withered)). Besides, in [10], the “J: Alopecurus myosuroides” value was 5 (Herbicidal ratio of 90% or more (almost completely withered)). Moreover, in [11], the “I: Avena fatua, herbicidal effect grade” value is 3 (Herbicidal ratio of 40% or higher and lower than 70%). In data set [12], the “f: beet, effect grade on crop” value is 0 (Herbicidal ratio of 5% or lower (almost no effect)). Further, the “M: Abutilon theophrasti, herbicidal effect grade” value in [13] is 4 (Herbicidal ratio of 70% or higher and lower than 90%). Also, in [14], the “N: Amaranthus retroflexus” value was 1 (Herbicidal ratio of 5% or higher and lower than 20%). Moreover, the “b: directly sowed rice plant, effect” value in data set [15] is 5 (Herbicidal ratio of 90% or more (almost completely withered)). Further, the “f: beet, effect on crop (criteria 0-5)” value in data set [16] is given as 0 (Herbicidal ratio of 5% or lower (almost no effect)).
On to `CON=C(C)CC1CC(OC(=O)C=Cc2ccco2)=C(c2c(C)cc(C)cc2C)C1=O` (stereo not shown) [1-091], for which the “M: Abutilon theophrasti, herbicidal effect (criteria 0-5)” value in [1] was 4 (Herbicidal ratio of 70% or higher and lower than 90%). The “d: soybean, effect on crop” value in [2] is 1 (Herbicidal ratio of 5% or higher and lower than 20%). In addition, in [3], the “herbicidal effect on H” value is on record as 5 (Herbicidal ratio of 90% or more (almost completely withered)). The “R: Veronica persica … (criteria 0-5)” value in data set [4] is 1 (Herbicidal ratio of 5% or higher and lower than 20%). Further, the “F: Digitaria ciliaris, herbicidal effect grade” value in [5] was 5 (Herbicidal ratio of 90% or more (almost completely withered)). Besides, the “L: Apera spica-venti” value in data set [6] was 5 (Herbicidal ratio of 90% or more (almost completely withered)). Moreover, in [7], the “F: Digitaria ciliaris … (criteria 0-5)” value is listed as 5 (Herbicidal ratio of 90% or more (almost completely withered)). Further, the “R: Veronica persica, herbicidal effect grade” value in data set [8] is reported as 0 (Herbicidal ratio of 5% or lower (almost no effect)). Further, the “Herbicidal effect grade, A: Echinochloa oryzacola Vasing.” value in data set [9] is recorded as 5 (Herbicidal ratio of 90% or more (almost completely withered)). The “J: Alopecurus myosuroides” value in [10] was 5 (Herbicidal ratio of 90% or more (almost completely withered)). In addition, in data set [11], the “I: Avena fatua, herbicidal effect grade” value is 3 (Herbicidal ratio of 40% or higher and lower than 70%). Also, in [12], the “f: beet, effect grade on crop” value was 0 (Herbicidal ratio of 5% or lower (almost no effect)). For the same compound, the “M: Abutilon theophrasti, herbicidal effect grade” value in data set [13] was 1 (Herbicidal ratio of 5% or higher and lower than 20%). In addition, the “N: Amaranthus retroflexus” value in data set [14] is 3 (Herbicidal ratio of 40% or higher and lower than 70%). Besides, the “b: directly sowed rice plant, effect” value in [15] was 5 (Herbicidal ratio of 90% or more (almost completely withered)). The “f: beet, effect on crop (criteria 0-5)” value in data set [16] was 0 (Herbicidal ratio of 5% or lower (almost no effect)).
